# Laboratory results: patent publication US10610522B2, “Methods for retreating irritable bowel syndrome (IBS)” (Salix Pharmaceuticals, Inc., priority 2014, dated 2020)
# Values joined by “and” are separate entries in the source; they are usually repeats but may differ in a detail not shown here. Identical values can stand only once.
# Columns and labels:
# [1] = biological target: cytochrome P450 2C9 (Homo sapiens, UniProt P11712); assay: In vitro cytochrome P450 inhibition; type: biochemical; settings: 2 to 200 ng/mL
# [2] = system: rat fetuses; assay: Developmental toxicity in pregnant rats; type: in vivo
# [3] = system: hepatic encephalopathy (HE), commonly-occurring infections; assay: Infection rates in cirrhotic patients with HE on long-term rifaximin 550 mg BID (RCT and open-label maintenance); type: in vivo; settings: for Any infection: rate = number of subjects/PEY; for C. difficile infection / Cellulitis / Peritonitis / Pneumonia / Urinary tract/kidney infection: human, in vivo
# Description: Cirrhosis patients can have an increased risk of infections and subsequent hospitalizations, leading to increased mortality. […] A description of the OLM and RCT can be found in WO 2011/005388, “METHODS OF TREATING HEPATIC ENCEPHALOPATHY,” which is incorporated herein by reference in its entirety. In the analysis below, the effect of long term RFX treatment on infection rates and antibiotic use was examined.
# Patients with cirrhosis and ≥2 overt HE episodes within 12 months were enrolled in the RCT (RFX=140; placebo [PBO]=159); 170 new patients, in addition to 70 RFX and 82 PBO patients who rolled over from the RCT were enrolled in OLM. The “All RFX group” (n=392) consisted of RFX-treated patients in both studies. Infection rates per person exposure years (PEY) were compared across RCT and All RFX groups, and antibiotic use over time was examined.
# In the 6 month RCT, RFX exposure was 50 PEY vs 46 PEY in the PBO group. Long term RFX exposure was for median=427 (2-1427) days, or 510 PEY. […] Overall, use of antibiotics (oral and intravenous) remained the same or declined with time.
# [4] = system: non-constipation IBS; assay: Study 1 (TARGET 1): rifaximin 550 mg TID 14 days vs placebo in non-C IBS, 10-week follow-up; type: in vivo, human
# Description: A measure of efficacy is based on subjects' answers to the Weekly Subject Global Assessment (SGA) questions over the study duration in relation to their IBS symptoms.
# Additionally subjects having a stool consistency score of <4 and at least a 1 point reduction in average daily IBS score were identified. […]
# In TARGET 1 and 2, the primary endpoint was the proportion of patients who achieved adequate relief of IBS symptoms for at least 2 of 4 weeks during the month following 14 days of treatment. Adequate relief was defined as a response of “yes” to the following weekly Subject Global Assessment (SGA) question: “In regards to your IBS symptoms, compared to the way you felt before you started study medication, have you, in the past 7 days, had adequate relief of your IBS symptoms? [Yes/No]”
# The key secondary endpoint was the proportion of patients who achieved adequate relief of IBS-related bloating for at least 2 of 4 weeks during the month following 2 weeks of treatment. Adequate relief of IBS-related bloating was defined as a response of “yes” to the following weekly (every 7 days) SGA question: “In regards to your IBS symptom of bloating, compared to the way you felt before you started study medication, have you, in the past 7 days, had adequate relief of your IBS symptom of bloating?
# The trials examined a composite endpoint which defined responders by IBS-related abdominal pain and stool consistency measures. Patients were responders if they experienced a ≥30% decrease from baseline in abdominal pain for ≥2 weeks during the month following 2 weeks of treatment. […] Patients were monthly responders if they met criteria for BOTH abdominal pain and stool consistency ≥2 weeks per month. […] (See Table 60.)
# [5] = Study 1, at least 2 weeks during PEP
# [6] = TARGET 1, month following two weeks of treatment, 550 mg TID, N = 309
# Chain of cytochrome P450 2C9 (P11712 whole entry): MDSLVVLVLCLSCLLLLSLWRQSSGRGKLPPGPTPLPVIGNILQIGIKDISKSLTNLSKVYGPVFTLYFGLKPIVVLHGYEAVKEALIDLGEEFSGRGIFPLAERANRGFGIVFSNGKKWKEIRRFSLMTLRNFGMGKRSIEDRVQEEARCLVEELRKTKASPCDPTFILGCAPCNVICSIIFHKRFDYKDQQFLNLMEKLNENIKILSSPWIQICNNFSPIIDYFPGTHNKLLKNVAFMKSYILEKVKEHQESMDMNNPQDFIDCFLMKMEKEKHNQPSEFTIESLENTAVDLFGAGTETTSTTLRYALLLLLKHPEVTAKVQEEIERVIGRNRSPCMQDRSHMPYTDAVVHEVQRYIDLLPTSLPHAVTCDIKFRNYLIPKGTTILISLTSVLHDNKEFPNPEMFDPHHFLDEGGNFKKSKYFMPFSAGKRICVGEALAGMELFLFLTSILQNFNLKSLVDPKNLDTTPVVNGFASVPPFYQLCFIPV
compound,measurement,setting,value
"CO[C@H]1/C=C/O[C@@]2(C)Oc3c(C)c(O)c4c(O)c(c5c(nc6cc(C)ccn65)c4c3C2=O)NC(=O)/C(C)=C\C=C\[C@H](C)[C@H](O)[C@@H](C)[C@@H](O)[C@@H](C)[C@H](OC(C)=O)[C@@H]1C [Rifaximin, (2S,16Z,18E,20S,21S,22R,23R,24R,25S,26S,27S,28E)-5,6,21,23,25 Pentahydroxy-27-methoxy-2,4,11,16,20,22,24,26-octamethyl-2,7-(epoxypentadeca-(1,11,13)trienimino) benzofuro (4,5-e) pyrido(1,2-a) benzimidazole-1,15(2H)-dione,25-acetate]",Inhibition of cytochrome P450 2C9,[1],does not inhibit
same,Fetal malformations,"[2]; pregnant rats, dose levels that caused reduced body weight gain",eye malformations
same,Post-natal developmental effects in rat pups,"[2]; pregnant/lactating rats dosed from gestation to Day 20 post-partum, highest dose",not observed
same,Any infection,"[3]; All RFX patients (n = 392), PEY = 510",214 (0.072) N (rate*)
same,Any infection,"[3]; RCT RFX 550 mg BID (n = 140), PEY = 50",46 (0.112) N (rate*)
same,C. difficile infection,[3],6 (0.012) N (rate*)
same,Cellulitis,[3],34 (0.071) N (rate*)
same,Peritonitis,[3],22 (0.044) N (rate*)
same,Pneumonia,[3],42 (0.084) N (rate*)
same,Urinary tract/kidney infection,[3],83 (0.193) N (rate*)
same,C. difficile infection,[3]; 6 months,2 (0.040) N (rate*)
same,Cellulitis,[3]; 6 months,3 (0.006) N (rate*)
same,Peritonitis,[3]; 6 months,3 (0.060) N (rate*)
same,Pneumonia,[3]; 6 months,4 (0.080) N (rate*)
same,Urinary tract/kidney infection,[3]; 6 months,9 (0.187) N (rate*)
same,IBS symptom of bloating: adequate relief at least 2 out of 4 weeks during weeks 3 through 6 (weekly question),[4]; Study 1 / TARGET 1,40%
same,Global IBS symptoms: adequate relief at least 2 out of 4 weeks during weeks 3 through 6 (weekly question),"[4]; Study 1 / TARGET 1, 550 mg TID 14 d",41% and 31% vs 41%
same,Responders: abdominal pain reduction of 1 point in weekly mean,[4]; [5],52%
same,Responders: abdominal pain reduction of 1 point in weekly median,[4]; [5],63%
same,Responders: abdominal pain reduction of 2 point in mean,[4]; [5],26%
same,Responders: abdominal pain reduction of 2 point in median,[4]; [5],37%
same,Responders: abdominal pain reduction of 3 point in mean,[4]; [5],6% vs 7%
same,Responders: abdominal pain reduction of 3 point in median,[4]; [5],22%
same,Responders: daily abdominal pain < 2 for at least 50% of days in a week,[4]; [5],40%
same,Responders: overall reduction of mean weekly abdominal pain by >= 25%,[4]; [5],56%
same,Responders: overall reduction of mean weekly abdominal pain by >= 50%,[4]; [5],36%
same,Responders: overall reduction of mean weekly abdominal pain by >= 75%,[4]; [5],14%
same,Responders: overall reduction of median weekly abdominal pain by >= 25%,[4]; [5],63%
same,Responders: overall reduction of median weekly abdominal pain by >= 50%,[4]; [5],44%
same,Responders: overall reduction of median weekly abdominal pain by >= 75%,[4]; [5],23%
same,Abdominal Pain Responders: %,[4]; [6],51%
same,Abdominal Pain Responders: n,[4]; [6],159
same,Abdominal Pain and Stool Consistency Responders: %,[4]; [6],47%
same,Abdominal Pain and Stool Consistency Responders: n,[4]; [6],144
same,Adequate Relief of IBS Symptoms: %,[4]; [6],41%
same,Adequate Relief of IBS Symptoms: n,[4]; [6],126
same,Adequate Relief of IBS-Related Bloating: %,[4]; [6],40%
same,Adequate Relief of IBS-Related Bloating: n,[4]; [6],122
same,Stool Consistency Responders: %,[4]; [6],79%
same,Stool Consistency Responders: n,[4]; [6],244
same,Monthly responders for abdominal pain (≥30% decrease) and stool consistency (score <4),"[4]; TARGET 1, ≥2 weeks in month following 2 weeks of treatment",47%
